What was measured:
Type in all cases: cell-based
BV173 [1] = experiment: Cell proliferation inhibitory action in the presence of folic acid (MTT assay); conditions: BV173, 5 mM, FA 2 mM, 2 hours (FIG. 4)
Description: (§1) The cell proliferation inhibitory action on leukemia cell lines in the presence of folic acid (FA) was evaluated as follows using the MTT assay.
(§2) Leukemia cell lines (K562 and BV173) were used in this example. The FA-HP-β-CyD synthesized in Example 1 was used.
(§3) 2×10^4 of each cell with 100 μL of medium was seeded per well to a flatbottom 96-well plate (Greiner Labortechnik, Hamburg, Germany), and incubation for 2 hours at 37° C. was carried out in combination with medium containing HP-β-CyD (5 mM) and FA-HP-β-CyD (5 mM) in the presence or absence of FA (2 mM). Evaluation was then carried out using a Cell Counting Kit-8 (Dojindo, Japan), which is a modified dimethyl-thiazole-diphenyl-tetrazolium (MTT) assay.
(§4) The evaluation here was carried out as follows, respectively, for the “CT” and “only FA” in FIG. 4. Thus, 2×10^4 of each cell with 100 μL of medium was seeded per well to a flatbottom 96-well plate and incubation was carried out for 2 hours at 37° C.; this was evaluated as “CT”. Incubation for 2 hours at 37° C. while exposed to only FA was evaluated as “only FA”.
(§5) Significant difference was established as follows. A two sample t-test was performed on the agents under investigation (FA-HP-β-CyD with FA, FA-HP-β-CyD without FA). A significant difference is established when p<0.05 in the comparison of the two samples.

K562 [2] = experiment: as above; conditions: K562, 5 mM, FA 2 mM, 2 hours (FIG. 4)
Description: as §1, §2, §3, §4, §5

BV173 [3] = experiment: Apoptosis, Annexin V/propidium iodide staining; conditions: BV173, 0.5, 1 and 1.5 mM, 48 hours (FIG. 5)
Description: (§6) The apoptosis of cells exposed to FA-HP-β-CyD was evaluated using Annexin V/propidium iodide (PI) staining as follows.
as §2
(§7) The apoptosis assay was performed by staining the cells with propidium iodide (PI) and Annexin V (BD Biosciences). The cells were cultured at a cell density of 4×10^5 cells/well on a 6-well plate and were incubated for 48 hours with FA-HP-β-CyD at different concentrations (0 mM (control: CT), 0.5 mM, 1 mM, and 1.5 mM). The cells were then stained with propidium iodide (PI) and Annexin V-APC (BD Biosciences) and analysis was performed using an FACSVerse flow cytometry system (BD Biosciences).

K562 [4] = experiment: Apoptosis, Annexin V/propidium iodide staining; conditions: K562, 0.5, 1 and 1.5 mM, 48 hours (FIG. 5)
Description: as §6, §2, §7

[5] = system: leukemia cell lines (K562, BV173, Ba/F3 p190, Ba/F3 p210, MYL-R, K562-IMR, and KBM5-STI); experiment: Comparison of cytotoxic activity across leukemia cell lines (MTT assay); conditions: Example 3
Description: The proliferation inhibitory action in leukemia cell lines was evaluated using a modified dimethyl-thiazole-diphenyl-tetrazolium (MTT) assay as follows.
The hepatocyte line and leukemia cell lines (K562, BV173, Ba/F3 p190, Ba/F3 p210, MYL-R, K562-IMR, and KBM5-STI) were used in this example. The FA-HP-β-CyD synthesized in Example 1 was used.
The cell viability was evaluated using the trypan blue dye exclusion method. Cell proliferation was evaluated using a Cell Counting Kit-8 (Dojindo, Japan), which is an MTT assay. 2×10^4 of each cell was seeded with 100 μL RPMI1640 medium (Sigma-Aldrich, USA) per well to a flatbottom 96-well plate (Greiner Labortechnik, Hamburg, Germany), and incubation for 72 hours was carried out with exposure to HP-β-CyD and FA-HP-β-CyD at different concentrations (0 mM (control: CT), 0.05 mM, 0.1 mM, 0.25 mM, 0.5 mM, and 1 mM).
According to Table 1, IC50 for FA-HP-β-CyD in the leukemia cell lines (K562, BV173, Ba/F3 p190, Ba/F3 p210, MYL-R, K562-IMR, and KBM5-STI) is shown to be about ⅕ to about 1/20 of that for HP-β-CyD. […] FA-HP-β-CyD is thus shown to have a stronger cytotoxic activity than HP-β-CyD.

BV173 [6] = experiment: Cellular uptake of TRITC-labelled CyD, confocal microscopy; conditions: confocal microscopy (FIG. 6)
Description: The cellular uptake of FA-HP-β-CyD was evaluated as follows.
A leukemia cell line (BV173) was used in this example. The FA-HP-β-CyD synthesized in Example 1 was used.
10 mg HP-β-CyD or FA-HP-β-CyD and 1 mg of TRITC were dissolved in 400 μL of dimethyl sulfoxide (DMSO) with stirring for 24 hours and the solution was then gradually poured into acetone. A precipitate was obtained and was washed with water. This was freeze-dried to prepare TRITC-HP-β-CyD and TRITC-FA-HP-β-CyD.
The cells were then cultured at a cell density of 4×10e5 per well on a 6-well plate and were incubated with […], TRITC-HP-β-CyD, FA-HP-β-CyD, or HP-βCyD at different concentrations. A Zeiss LSM880 confocal microscope was used to observe the cells. Imaris (Zeiss) fluorescent image analysis software was used for analysis.
The Control refers to incubation at the same time as the other exposure groups, but without exposure to an agent. Cell localization was stained by DAPI and the cell membrane was stained with PlasMen Bright Green, and the cellular uptake of TRITC-FA-HP-β-CyD was evaluated using confocal microscopy.

BV173 [7] = experiment: Induction of autophagosome formation (Cyto-ID Autophagy Detection Kit); conditions: BV173, 1 mM or 5 mM, 2 hours (FIG. 7)
Description: (§8) The induction of autophagosome formation by FA-HP-β-CyD was evaluated as follows.
as §2
(§9) The cells were cultured at a cell density of 4×10^5 cells/well on a 6-well plate and were treated for 2 hours with 1 mM or 5 mM HP-β-CyD or FA-HP-β-CyD, and the cells were incubated. This was followed by use of a Cyto-ID (registered trademark) Autophagy Detection Kit (Enzo Life Sciences, USA) and the use of an Axio Imager.M2 fluorescence microscope+an ApoTome.2 (Zeiss) for cell observation.

K562 [8] = experiment: as above; conditions: K562, 1 mM or 5 mM, 2 hours (FIG. 7)
Description: as §8, §2, §9

In the case of “folic acid-appended hydroxypropyl-β-cyclodextrin [FA-HP-β-CyD]”, the “antitumor activity in the presence of FA compared to without FA” value (BV173 [1]) is reported as “significantly reduced”, the “antitumor activity in the presence of FA compared to without FA” value (K562 [2]) is reported as “significantly reduced” and the apoptosis induction (BV173 [3]) is reported as “induce apoptosis in a concentration dependent manner”. The apoptosis induction (K562 [4]) was “induce apoptosis in a concentration dependent manner”, the “amount giving the equivalent anti-leukemia action relative to un-appended HP-β-CyD” value [5] was “approximately one-tenth the amount” and the cellular uptake (BV173 [6]) was “incorporated in large amounts into the cell”. For the same substance, the “autophagosome membrane protein LC3B” value (BV173 [7]) was “increase in a concentration dependent manner” and the “autophagosome membrane protein LC3B” value (K562 [8]) was “increase in a concentration dependent manner”.

From patent US20250213603A1, “PHARMACEUTICAL COMPOSITION FOR TREATING CANCER” (SAGA UNIVERSITY, priority 2021, published 2025)
